Source: patent US20250282776A1, “Bicyclic TLR7 Agonists and Uses Thereof” (Bristol-Myers Squibb Company, priority 2024, published 2025)

How the values were obtained:
human TLR7 (hTLR7) = molecular target: T1, human TLR7 (hTLR7) (Homo sapiens, UniProt Q9NYK1); assay: Human TLR7 agonist activity assay (HEK-Blue TLR7 SEAP reporter); assay type: cell-based; settings: HEK-Blue TLR7 cells, 18 h incubation, Quanti-Blue, OD 620 nm, some values average of multiple measurements
T1 construct: host or cells: HEK-Blue TLR7 cells (engineered human embryonic kidney cells)
T1 sequence (Q9NYK1 27-1049): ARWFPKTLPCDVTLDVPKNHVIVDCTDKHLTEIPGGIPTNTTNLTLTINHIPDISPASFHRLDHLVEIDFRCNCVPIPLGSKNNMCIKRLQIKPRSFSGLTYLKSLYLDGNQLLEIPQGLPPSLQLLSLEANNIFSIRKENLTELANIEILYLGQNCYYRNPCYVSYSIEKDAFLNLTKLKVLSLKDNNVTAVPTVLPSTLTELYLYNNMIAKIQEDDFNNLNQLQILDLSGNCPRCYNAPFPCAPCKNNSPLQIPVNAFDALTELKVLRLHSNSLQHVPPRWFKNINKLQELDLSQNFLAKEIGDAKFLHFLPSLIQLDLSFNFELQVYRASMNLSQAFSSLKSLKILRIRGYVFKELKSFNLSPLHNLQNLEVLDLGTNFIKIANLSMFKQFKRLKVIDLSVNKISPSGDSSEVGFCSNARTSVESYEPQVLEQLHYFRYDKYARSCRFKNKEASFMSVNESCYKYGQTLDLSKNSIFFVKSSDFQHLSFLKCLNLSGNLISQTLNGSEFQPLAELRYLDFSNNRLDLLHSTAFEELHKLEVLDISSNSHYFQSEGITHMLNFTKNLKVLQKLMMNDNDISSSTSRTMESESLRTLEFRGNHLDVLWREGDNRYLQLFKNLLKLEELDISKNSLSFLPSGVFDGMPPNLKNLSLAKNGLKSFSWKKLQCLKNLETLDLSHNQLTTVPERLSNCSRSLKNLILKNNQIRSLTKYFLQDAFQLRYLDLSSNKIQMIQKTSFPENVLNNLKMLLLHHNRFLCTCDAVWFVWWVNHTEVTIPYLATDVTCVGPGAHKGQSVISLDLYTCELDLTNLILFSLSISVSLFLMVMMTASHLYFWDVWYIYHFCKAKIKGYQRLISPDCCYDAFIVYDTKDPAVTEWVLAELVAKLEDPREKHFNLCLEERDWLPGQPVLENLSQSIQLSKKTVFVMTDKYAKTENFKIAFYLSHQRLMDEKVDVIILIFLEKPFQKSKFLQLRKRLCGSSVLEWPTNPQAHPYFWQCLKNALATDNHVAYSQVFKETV
Outline: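 HEK-Blue TLR7 cells seeded 16-18 h, then exposed to compound for 18 h at 37 °C, 5% CO2. Secreted SEAP read with Quanti-Blue at OD 620 nm after 30 min. EC50 taken as concentration giving half-maximal response between baseline and maximum; some values averaged over repeats.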

human TLR8 (hTLR8) = molecular target: T2, human TLR8 (hTLR8) (Homo sapiens, UniProt Q9NR97); assay: Human TLR8 agonist activity assay (measured in a similar manner); assay type: cell-based; settings: HEK-Blue TLR cells, SEAP reporter, measured in a similar manner to TLR7; some values average of multiple measurements
T2 construct: expressed in transfected cells
T2 sequence (Q9NR97 27-1041): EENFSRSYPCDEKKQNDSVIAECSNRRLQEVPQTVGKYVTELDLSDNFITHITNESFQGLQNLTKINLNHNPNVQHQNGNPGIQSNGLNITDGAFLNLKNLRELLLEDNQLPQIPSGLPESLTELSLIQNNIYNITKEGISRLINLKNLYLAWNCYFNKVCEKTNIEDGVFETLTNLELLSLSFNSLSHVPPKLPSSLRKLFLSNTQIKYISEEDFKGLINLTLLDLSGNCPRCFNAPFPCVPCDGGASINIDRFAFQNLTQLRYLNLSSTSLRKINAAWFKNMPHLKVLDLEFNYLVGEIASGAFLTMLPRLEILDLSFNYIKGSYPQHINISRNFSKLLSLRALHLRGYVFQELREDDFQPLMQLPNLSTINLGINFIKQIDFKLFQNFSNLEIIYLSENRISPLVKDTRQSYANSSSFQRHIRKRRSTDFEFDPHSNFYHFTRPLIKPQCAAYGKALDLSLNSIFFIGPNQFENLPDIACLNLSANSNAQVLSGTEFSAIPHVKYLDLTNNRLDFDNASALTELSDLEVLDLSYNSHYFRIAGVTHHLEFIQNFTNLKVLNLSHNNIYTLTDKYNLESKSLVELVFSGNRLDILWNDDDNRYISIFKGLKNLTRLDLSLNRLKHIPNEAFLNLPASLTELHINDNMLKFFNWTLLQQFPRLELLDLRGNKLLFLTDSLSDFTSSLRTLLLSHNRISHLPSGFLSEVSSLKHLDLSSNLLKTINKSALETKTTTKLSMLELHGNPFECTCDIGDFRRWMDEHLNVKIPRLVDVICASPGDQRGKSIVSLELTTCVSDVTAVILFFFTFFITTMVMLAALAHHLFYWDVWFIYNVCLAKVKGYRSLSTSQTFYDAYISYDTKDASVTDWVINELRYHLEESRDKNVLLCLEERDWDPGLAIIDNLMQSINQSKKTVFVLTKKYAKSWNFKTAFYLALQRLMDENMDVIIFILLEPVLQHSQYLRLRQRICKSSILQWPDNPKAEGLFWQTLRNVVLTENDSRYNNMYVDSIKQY
Outline: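 Compounds were added to HEK-Blue TLR8 reporter cells, pre-incubated 16-18 h, then treated 18 h at 37° C, 5% CO2. SEAP output was measured with Quanti-Blue (30 min) at OD 620 nm. Some values are averages of multiple measurements.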

SMILES: CCCCN(CCO)c1nc(N)nc2cn(Cc3ccc(CN[C@H]4C[C@H](OC)C4)n4ccnc34)nc12 [Compound 188]
- EC50 (human TLR7 (hTLR7)): 781 nM
- EC50 (human TLR8 (hTLR8)): 1400 nM

SMILES: CCCCN(CCO)c1nc(N)nc2cn(Cc3ccc(CNC(C)(C)C)n4ncnc34)nc12 [Compound 189, 2-((5-Amino-2-((5-((tert-butylamino)methyl)-[1,2,4]triazolo[1,5-a]pyridin-8-yl)methyl)-2H-pyrazolo[4,3-d]pyrimidin-7-yl)(butyl)amino)ethan-1-ol]
- EC50 (human TLR7 (hTLR7)): 793 nM
- EC50 (human TLR8 (hTLR8)): 570 nM

SMILES: CCCCN(CCO)c1nc(N)nc2cn(Cc3c(F)cc(C4=CCC(NC5CCOCC5)CC4)cc3OC)nc12 (stereo not drawn) [Compound 190]
- EC50 (human TLR7 (hTLR7)): 563 nM
- EC50 (human TLR8 (hTLR8)): 1680 nM

SMILES: CCCCN(CCO)c1nc(N)nc2cn(Cc3c(F)cc(C4=CCC(NC5CC6(COC6)C5)CC4)cc3OC)nc12 (stereo not drawn) [Compound 192]
- EC50 (human TLR7 (hTLR7)): 550 nM
- EC50 (human TLR8 (hTLR8)): 1600 nM

SMILES: CCCCN(CCO)c1nc(N)nc2cn(Cc3c(F)cc(C4=CCC(NCCOC)CC4)cc3OC)nc12 (stereo not drawn) [Compound 193]
- EC50 (human TLR7 (hTLR7)): 333 nM
- EC50 (human TLR8 (hTLR8)): 1080 nM

SMILES: CCCCN(CCO)c1nc(N)nc2cn(Cc3c(F)cc(C4=CC[C@@H](NC5CC6(COC6)C5)CC4)cc3OC)nc12 [Compound 194]
- EC50 (human TLR7 (hTLR7)): 422 nM
- EC50 (human TLR8 (hTLR8)): 1130 nM

SMILES: CCCCN(CCO)c1nc(N)nc2cn(Cc3c(F)cc(C4CCC(N(C)C5CC6(COC6)C5)CC4)cc3OC)nc12 (stereo not drawn) [Compound 195]
- EC50 (human TLR7 (hTLR7)): 541 nM
- EC50 (human TLR8 (hTLR8)): 1750 nM

SMILES: CCCCN(CCO)c1nc(N)nc2cn(Cc3c(F)cc(C4=CCC(N(CCO)CCO)CC4)cc3OC)nc12 (stereo not drawn) [Compound 197]
- EC50 (human TLR7 (hTLR7)): 570 nM
- EC50 (human TLR8 (hTLR8)): 2740 nM

SMILES: CCCCN(CCO)c1nc(N)nc2cn(Cc3ccc(CN[C@@H]4CCCN(C(=O)CN)C4)c4cccnc34)nc12 [Compound 198]
- EC50 (human TLR7 (hTLR7)): 1310 nM
- EC50 (human TLR8 (hTLR8)): 2270 nM

SMILES: CCCCN(CCO)c1nc(N)nc2cn(Cc3c(F)cc(C4CCC(N(C)CCOC)CC4)cc3OC)nc12 (stereo not drawn) [Compound 199]
- EC50 (human TLR7 (hTLR7)): 274 nM
- EC50 (human TLR8 (hTLR8)): 1620 nM

SMILES: CCCCN(CCO)c1nc(N)nc2cn(Cc3ccc(CN[C@@H]4CCCN(S(C)(=O)=O)C4)c4cccnc34)nc12 [Compound 200, (R)-2-((5-Amino-2-((5-(((1-(methylsulfonyl)piperidin-3-yl)amino)methyl)quinolin-8-yl)methyl)-2H-pyrazolo[4,3-d]pyrimidin-7-yl)(butyl)amino) ethan-1-ol]
- EC50 (human TLR7 (hTLR7)): 301 nM
- EC50 (human TLR8 (hTLR8)): 879 nM

SMILES: CCCCN(CCO)c1nc(N)nc2cn(Cc3ncc(CNC(C)(C)C)cc3OC)nc12 [Compound 201]
- EC50 (human TLR7 (hTLR7)): 1350 nM
- EC50 (human TLR8 (hTLR8)): 3140 nM

SMILES: CCCCN(CCO)c1nc(N)nc2cn(Cc3ccc(CNC4CCCOC4)c4scnc34)nc12 (stereo not drawn) [Compound 202]
- EC50 (human TLR7 (hTLR7)): 614 nM
- EC50 (human TLR8 (hTLR8)): 725 nM

SMILES: CCCCN(CCO)c1nc(N)nc2cn(Cc3ccc(CNC4CCOCC4)c4nccnc34)nc12 [Compound 206]
- EC50 (human TLR7 (hTLR7)): 1900 nM
- EC50 (human TLR8 (hTLR8)): 1190 nM

SMILES: CCCCN(CCO)c1nc(N)nc2cn(Cc3ccc(CNC4CCC4)c4cn[nH]c34)nc12 [Compound 207]
- EC50 (human TLR7 (hTLR7)): 2380 nM
- EC50 (human TLR8 (hTLR8)): 1180 nM

SMILES: CCCCN(CCO)c1nc(N)nc2cn(Cc3ccc(CNCCOC)c4nccnc34)nc12 [Compound 208]
- EC50 (human TLR7 (hTLR7)): 1890 nM
- EC50 (human TLR8 (hTLR8)): 1270 nM

SMILES: CCCCN(CCO)c1nc(N)nc2c(C)n(Cc3ccc(CNC4CCOCC4)cc3OC)nc12 [Compound 212, 2-((5-Amino-2-(2-methoxy-4-(((tetrahydro-2H-pyran-4-yl)amino)methyl)benzyl)-3-methyl-2H-pyrazolo[4,3-d]pyrimidin-7-yl) (butyl)amino) ethan-1-ol]
- EC50 (human TLR7 (hTLR7)): 148 nM
- EC50 (human TLR8 (hTLR8)): 112 nM

SMILES: CCCCN(CCO)c1nc(N)nc2cn(Cc3ccc(CNC4CCS(=O)(=O)CC4)c4scnc34)nc12 [Compound 213]
- EC50 (human TLR7 (hTLR7)): 396 nM
- EC50 (human TLR8 (hTLR8)): 677 nM
